Data taken from BigSolDB 2.1.

CNC(=O)c1cc(Oc2ccc(N)cc2)ccn1
solubility (mole fraction)
Conditions	in THF	in acetonitrile	in ethanol	in ethyl acetate	in methanol	in n-butanol	in n-propanol
278.15 K	0.0898	0.0273	0.00539	0.0528	0.00809	0.00322	0.00451
283.15 K	0.0978	0.0317	0.00707	0.0637	0.0117	0.0044	0.00593
288.15 K	0.108	0.0394	0.00914	0.0773	0.0158	0.00563	0.00778
293.15 K	0.118	0.0491	0.0136	0.0919	0.0203	0.00781	0.0111
298.15 K	0.129	0.0595	0.0179	0.11	0.0276	0.00986	0.0135
303.15 K	0.143	0.0737	0.0249	0.129	0.0369	0.0132	0.0181
308.15 K	0.158	0.0897	0.0331	0.151	0.0488	0.0171	0.0237
313.15 K	0.173	0.109	0.044	0.179	0.0634	0.0222	0.0308
318.15 K	0.192	0.133	0.0587	0.207	0.082	0.0287	0.0396
323.15 K	0.211	0.161	0.0764	0.238	0.105	0.0366	0.0503
328.15 K	0.233	0.195	0.0999	0.28	0.134	0.0466	0.0638
